Experimental data from ChEMBL document CHEMBL3044958, “Synthesis, evaluation of 6,8-dibromo-2-aryl-2,3-dihydroquinolin-4(1H)-ones in MCF-7 (breast cancer) cell lines and their docking studies” (2012).

Key:
Format in all cases: functional
MCF7 [1] = assay: Growth inhibition of Homo sapiens (human) MCF-7 cells after 48 hr by SRB assay; conditions: MCF7, 48 h
MCF7 [2] = assay: Growth inhibition of Homo sapiens (human) MCF-7 cells assessed as cell growth at 10 '-4 M after 48 hr by SRB assay; conditions: MCF7, 48 h, read-out: Activity
MCF7 [3] = assay: Growth inhibition of Homo sapiens (human) MCF-7 cells assessed as cell growth at 10 '-5 M after 48 hr by SRB assay; conditions: MCF7, 48 h, read-out: Activity
MCF7 [4] = assay: Growth inhibition of Homo sapiens (human) MCF-7 cells assessed as cell growth at 10 '-6 M after 48 hr by SRB assay; conditions: MCF7, 48 h, read-out: Activity
MCF7 [5] = assay: Growth inhibition of Homo sapiens (human) MCF-7 cells assessed as cell growth at 10 '-7 M after 48 hr by SRB assay; conditions: MCF7, 48 h, read-out: Activity
MCF7 [6] = assay: Growth inhibition of Homo sapiens (human) MCF-7 cells assessed as total cell growth after 48 hr by SRB assay
MCF7 [7] = assay: Cytotoxicity against Homo sapiens (human) MCF-7 cells after 48 hr by SRB assay; conditions: MCF7, 48 h

Row | SMILES | GI50 (MCF7 [1]) | growth at 100 µM (MCF7 [2]) | growth at 10 µM (MCF7 [3]) | growth at 1 µM (MCF7 [4]) | growth at 0.1 µM (MCF7 [5]) | TGI (MCF7 [6]) | LC50 (concentration killing 50% of cells) (MCF7 [7])
1 | COc1cccc2c1C(=O)c1c(O)c3c(c(O)c1C2=O)C[C@@](O)(C(=O)CO)C[C@@H]3O[C@H]1C[C@H](N)[C@H](O)[C@H](C)O1.Cl [DOXORUBICIN HYDROCHLORIDE] | < 100 nM | -33.5% | -23.7% | -13.9% | 53.5% | 183 nM | 
2 | O=C1CC(c2ccc(F)cc2)Nc2c(Br)cc(Br)cc21 (stereo unspecified) | < 100 nM | -48.1% | -3.6% | 9.2% | 30.1% | 145 nM | > 100000 nM
3 | O=C1CC(c2ccc(O)cc2)Nc2c(Br)cc(Br)cc21 (stereo unspecified) | < 100 nM | -45.3% | -2% | 9.6% | 3.7% | 151 nM | > 100000 nM
4 | O=C1CC(c2ccc(Cl)cc2)Nc2c(Br)cc(Br)cc21 (stereo unspecified) | 146 nM | -40% | 34.5% | 61.7% | 60.2% | 2870 nM | > 100000 nM
5 | O=C1CC(c2ccc(Br)cc2)Nc2c(Br)cc(Br)cc21 (stereo unspecified) | 151 nM | -43% | 12.5% | 69.7% | 69.7% | 2600 nM | > 100000 nM
6 | O=C1CC(c2cccc(O)c2)Nc2c(Br)cc(Br)cc21 (stereo unspecified) | > 100000 nM | 14.7% | 25.6% | 108% | 118% | > 100000 nM | > 100000 nM
7 | O=C1CC(c2ccc([N+](=O)[O-])cc2)Nc2c(Br)cc(Br)cc21 (stereo unspecified) | < 100 nM | -52.3% | -4.4% | 8.6% | 50.5% | 132 nM | > 100000 nM
8 | COc1ccc(C2CC(=O)c3cc(Br)cc(Br)c3N2)cc1 (stereo unspecified) | > 100000 nM | 7.1% | 87.8% | 140% | 168% | > 100000 nM | > 100000 nM
9 | N#Cc1ccc(C2CC(=O)c3cc(Br)cc(Br)c3N2)cc1 (stereo unspecified) | < 100 nM | -58.5% | -5.1% | 8.2% | 43.1% | 126 nM | > 100000 nM
10 | CN(C)c1ccc(C2CC(=O)c3cc(Br)cc(Br)c3N2)cc1 (stereo unspecified) | > 100000 nM | 43% | 130% | 144% | 164% | > 100000 nM | > 100000 nM
11 | COc1cc(C2CC(=O)c3cc(Br)cc(Br)c3N2)cc(OC)c1OC (stereo unspecified) | > 100000 nM | 34.3% | 99.6% | 110% | 130% | > 100000 nM | > 100000 nM
